Laboratory results published in patent US20140206657A1, “BILE ACID ANALOG TGR5 AGONISTS” (City of Hope, priority 2013, published 2014).

Legend:
[1] = biological target: T1, human TGR5 (Homo sapiens, UniProt Q8TDU6); assay: cAMP assay, HEK293 cells stably expressing human TGR5; format: cell-based
T1 construct: expressed in transfected cells
T1 sequence (Q8TDU6 1-330): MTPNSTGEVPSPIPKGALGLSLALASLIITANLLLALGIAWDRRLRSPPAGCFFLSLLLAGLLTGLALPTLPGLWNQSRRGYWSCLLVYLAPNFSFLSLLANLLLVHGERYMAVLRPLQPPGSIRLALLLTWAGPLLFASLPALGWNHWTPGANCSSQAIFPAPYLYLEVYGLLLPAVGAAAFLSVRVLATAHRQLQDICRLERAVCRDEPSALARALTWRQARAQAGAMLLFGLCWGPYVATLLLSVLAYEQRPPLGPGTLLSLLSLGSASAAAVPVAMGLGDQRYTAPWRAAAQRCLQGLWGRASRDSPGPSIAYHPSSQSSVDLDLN
Description: The changes in cAMP elicited by these bile acid derivatives was determined after binding to the TGR5. […] HEK293 cells stably expressing human TGR5 were treated with increasing doses of ligand after 6 hours of stimulation, and intracellular cAMP levels were measured by luminescence. […] Data analysis to determine EC50 values was performed with GraphPad Prism software using a cAMP standard curve and sigmoidal dose-response (variable slope) equation based on dose-response curves with tested compounds.

Structure (SMILES) | EC50 [1] [nM] | also measured
CC[C@@]1(O)CC[C@@]2(C)[C@H](CC[C@@H]3[C@@H]2CC[C@]2(C)[C@@H]([C@H](C)CCC(=O)O)CC[C@@H]32)C1 [compound 26, 3β-Ethyl-3α-hydroxy-LCA] | – | TGR5 activity / potency, in words (SAR statements) ([1]; assay not named in b266 and b269, b275 belongs to the cAMP example): large loss in potency
CC[C@H]1[C@H](O)[C@@H]2[C@H](CC[C@]3(C)[C@@H]([C@H](C)C[C@H](C)C(=O)O)CC[C@@H]23)[C@@]2(C)CC[C@@H](O)C[C@@H]12 [compound 24, 3α,7β-Dihydroxy-23(S)-methyl-6α-ethyl-5β-cholan-24-oic acid] | 710 | –
CC[C@H]1C[C@@H]2[C@H](CC[C@]3(C)[C@@H]([C@H](C)C[C@H](C)C(=O)O)CC[C@@H]23)[C@@]2(C)CC[C@@H](O)C[C@@H]12 | – | melting point: 137.7 °C
C[C@H](C[C@H](C)C(=O)O)[C@H]1CC[C@H]2[C@@H]3CC[C@@H]4C[C@H](O)CC[C@]4(C)[C@H]3CC[C@]12C [compound 13, 23(S)-Methyl-3α-hydroxy-5β-cholan-24-oic acid] | 210 | –
